In US20220330549A1, “USE OF N-BENZYLBENZAMIDE-BASED COMPOUND AS HERBICIDE” (Northwest A&F University, priority 2020, published 2022):

What was measured:
Type in all cases: in vivo
[1] = test system: Barnyard grass; experiment: Herbicidal activity test for indoor pre-emergence soil treatment; set-up: key: level 1-9; higher = more weed remaining vs blank control; conditions: 150 g a.i./ha, visual inspection 21 days after treatment
Procedure, shortened: (§1)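 Pre-emergence test following NY/T 1155.3-2006: weed seeds were sown in moistened neutral sandy loam (≤2% organic matter) and covered with 0.5–2.0 cm of soil. After 24 h, the soil was sprayed with a 10% EC diluted in water at 150 g(a.i.)/ha. Damage was scored visually on a 1–9 scale at 21 days.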

[2] = test system: Piemarker; experiment: as above; set-up: key: level 1-9; higher = more weed remaining vs blank control; conditions: 150 g a.i./ha, visual inspection 21 days after treatment
Procedure, shortened: as §1

[3] = test system: green bristlegrass; experiment: as above; set-up: key: level 1-9; higher = more weed remaining vs blank control; conditions: 150 g a.i./ha, visual inspection 21 days after treatment
Procedure, shortened: as §1

[4] = test system: Amaranthus retroflexus; experiment: as above; set-up: key: 1-9 levels; higher = more weed remaining vs blank control; conditions: 150 g a.i./ha, visual inspection 21 days after treatment
Procedure, shortened: as §1

[5] = test system: Digitaria sanguinalis; experiment: as above; set-up: key: 1-9 levels; higher = more weed remaining vs blank control; conditions: 150 g a.i./ha, visual inspection 21 days after treatment
Procedure, shortened: as §1

[6] = test system: Humulus scandens; experiment: as above; conditions: 150 g a.i./ha, visual inspection 21 days after treatment
Procedure, shortened: as §1

[7] = test system: Amaranthus retroflexus; experiment: Herbicidal activity test for indoor post-emergence spraying on stems and leaves; set-up: key: grade level by weed remaining vs blank control, e.g. 5 = 10.1-15%; conditions: 150 g a.i./ha, visual inspection 21 days after treatment
Procedure, shortened: (§2)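 Post-emergence stem and leaf spray in an indoor test following NY/T 1155.4-2006, with weeds sown and grown in a greenhouse. Effect scored visually 21 days after treatment as graded levels, each level set by the percentage of weed remaining relative to the blank control area.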

[8] = test system: Barnyard grass; experiment: as above; set-up: key: grade level by weed remaining vs blank control, e.g. 5 = 10.1-15%; conditions: 150 g a.i./ha, visual inspection 21 days after treatment
Procedure, shortened: as §2

[9] = test system: Digitaria sanguinalis; experiment: as above; set-up: key: grade level by weed remaining vs blank control, e.g. 5 = 10.1-15%; conditions: 150 g a.i./ha, visual inspection 21 days after treatment
Procedure, shortened: as §2

[10] = test system: Humulus scandens; experiment: as above; set-up: key: grade level by weed remaining vs blank control, e.g. 5 = 10.1-15%; conditions: 150 g a.i./ha, visual inspection 21 days after treatment
Procedure, shortened: as §2

[11] = test system: Piemarker; experiment: as above; set-up: key: grade level by weed remaining vs blank control, e.g. 5 = 10.1-15%; conditions: 150 g a.i./ha, visual inspection 21 days after treatment
Procedure, shortened: as §2

[12] = test system: green bristlegrass; experiment: as above; set-up: key: grade level by weed remaining vs blank control, e.g. 5 = 10.1-15%; conditions: 150 g a.i./ha, visual inspection 21 days after treatment
Procedure, shortened: as §2

[13] = test system: Broadleaf weed; experiment: Post-emergence herbicidal activity test in a paddy field; set-up: key: level scale; higher level = more weed left vs blank control; conditions: 150 g a.i./ha (penoxsulam control 250 g(a.i.)/h)
Procedure, shortened: (§3)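 Efficacy was visually estimated 15 and 30 days after spraying, grading weed coverage relative to an untreated neighbouring plot (level 2 = 0 to 2.5%, level 9 = 67.6 to 100%). Treatments were 150 g(a.i.)/ha from 10% emulsifiable concentrates applied at the 4-5 leaf rice stage, four repeats of 50 m^2 each.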

[14] = test system: Cyperaceae; experiment: as above; set-up: key: level scale; higher level = more weed left vs blank control; conditions: 150 g a.i./ha (penoxsulam control 250 g(a.i.)/h)
Procedure, shortened: as §3

[15] = test system: Gramineae; experiment: as above; set-up: key: level scale; higher level = more weed left vs blank control; conditions: 150 g a.i./ha (penoxsulam control 250 g(a.i.)/h)
Procedure, shortened: as §3

[16] = test system: Acalypha australis; experiment: Field test for weed control in a corn field; conditions: 150 g a.i./ha, after treatment
Procedure, shortened: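 Post-emergence field trial in a corn field following GB/T 17980.42-2000. Test compounds were formulated as 10% emulsifiable concentrates, diluted in water, and sprayed at 150 g(a.i.)/ha when corn had 2 to 5 leaves, with 4 replicates on 20 m^2 plots. Mesotrione 25% oil dispersion served as the control agent. Weed control was scored on a 1-9 scale.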

[17] = test system: Amaranthus retroflexus; experiment: Field test for weed control in a corn field; conditions: 150 g a.i./ha, 30 days after treatment
Procedure, shortened: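 Field efficacy trial in a corn field following GB/T 17980.42-2000. Test compounds were formulated as 10% emulsifiable concentrates, diluted in water and sprayed post-emergence when corn had 2 to 5 leaves. Each treatment covered 20 m^2 with 4 replicates. A 25% mesotrione oil dispersion served as control. Damage to Amaranthus retroflexus was rated on a 1-9 scale against untreated blank plots.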

[18] = test system: Barnyard grass; experiment: Field test for weed control in a corn field; conditions: 150 g a.i./ha, 30 days after treatment
Procedure, shortened: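 Corn-field efficacy trial following GB/T 17980.42-2000. Test compounds were formulated as 10% emulsifiable concentrates, diluted in water and sprayed post-emergence at 150 g(a.i.)/ha when corn had 2 to 5 leaves. Each treatment was replicated 4 times on 20 m^2 plots. Barnyard grass control was rated on a 1-9 damage scale.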

[19] = test system: Chenopodium album; experiment: Field test for weed control in a corn field; conditions: 150 g a.i./ha, after treatment
Procedure, shortened: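 A corn-field efficacy trial following GB/T 17980.42-2000 tested post-emergence control of Chenopodium album. Test compounds formulated as 10% emulsifiable concentrates were diluted in water and sprayed at 150 g(a.i.)/ha when the corn had 2 leaves to 5 leaves, on 20 m^2 plots with 4 replicates. Herbicidal activity was rated on a 1-9 scale by damage symptoms and severity.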

[20] = test system: Convolvulus arvensis; experiment: Field test for weed control in a corn field; conditions: 150 g a.i./ha, after treatment
Procedure, shortened: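 Field trial of weed control against Convolvulus arvensis in corn, run following GB/T 17980.42-2000. Test agents were formulated as 10% emulsifiable concentrates and sprayed in water at 150 g(a.i.)/ha when corn plants had 2 to 5 leaves. Each treatment was replicated 4 times on 20 m^2 plots, and 25% mesotrione oil dispersion served as the control agent.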

[21] = test system: Digitaria sanguinalis; experiment: Field test for weed control in a corn field; conditions: 150 g a.i./ha, after treatment
Procedure, shortened: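 Field trial in a corn field following GB/T 17980.42-2000. Test compounds were formulated as 10% emulsifiable concentrates, diluted in water and sprayed post-emergence at 150 g(a.i.)/ha when corn had 2 to 5 leaves, with 4 replicates on 20 m^2 plots. Control of Digitaria sanguinalis was scored on a 1-9 scale based on weed damage relative to the untreated blank area.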

[22] = test system: Portulaca oleracea; experiment: Field test for weed control in a corn field; conditions: 150 g a.i./ha, after treatment
Procedure, shortened: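 Field efficacy trial in corn following GB/T 17980.42-2000. Test compounds were prepared as 10% emulsifiable concentrates, diluted in water, and sprayed at 150 g(a.i.)/ha when corn had 2 to 5 leaves after sowing. Plots were 20 m^2 with 4 replicates per treatment. Herbicidal activity was scored on a 1-9 scale from weed damage symptoms and severity.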

[23] = test system: Solanum nigrum; experiment: Field test for weed control in a corn field; conditions: 150 g a.i./ha, 30 days after treatment
Procedure, shortened: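 Post-emergence weed control was tested in a corn field following GB/T 17980.42-2000. Compounds were made into 10% emulsifiable concentrates, diluted in water and sprayed at 150 g(a.i.)/ha when corn had 2 to 5 leaves after sowing, in 20 m^2 plots with 4 replicates. Effects on Solanum nigrum were graded on a 1-9 scale relative to the blank control area.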

[24] = test system: goosegrass; experiment: Field test for weed control in a corn field; conditions: 150 g a.i./ha, after treatment
Procedure, shortened: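 Weed control efficacy against goosegrass was tested in a corn field following GB/T 17980.42-2000. Compounds formulated as 10% emulsifiable concentrates were diluted in water and sprayed post-emergence at 150 g(a.i.)/ha when corn had 2 to 5 leaves, with 4 replicates of 20 m^2 plots. Herbicidal activity was rated on a 1-9 scale by damage symptoms and severity.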

[25] = test system: green bristlegrass; experiment: Field test for weed control in a corn field; conditions: 150 g a.i./ha, after treatment
Procedure, shortened: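 Post-emergence weed control was tested in a corn field following GB/T 17980.42-2000. When the corn had 2 leaves to 5 leaves after sowing, 10% emulsifiable concentrates diluted in water were sprayed at 150 g(a.i.)/ha on 20 m^2 plots, four replicates per treatment. Effects on green bristlegrass were scored on a 1-9 damage scale relative to the blank control area.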

[26] = test system: nutgrass flatsedge; experiment: Field test for weed control in a corn field; conditions: 150 g a.i./ha, after treatment
Procedure, shortened: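 A corn field efficacy trial following GB/T 17980.42-2000 assessed post-emergence control of nutgrass flatsedge. Test compounds were formulated as 10% emulsifiable concentrates, diluted in water, and sprayed at 150 g(a.i.)/ha when the corn had 2 to 5 leaves. Each treatment had 4 replicates on 20 m^2 plots. Herbicidal activity was graded on a 1-9 scale by damage symptoms and severity.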

Structure (SMILES) | Herbicidal Activity Barnyard grass [1] | Herbicidal Activity Piemarker [2] | Herbicidal Activity Green bristlegrass [3] | Herbicidal Activity Amaranthus retroflexus [4] | Herbicidal Activity Digitaria sanguinalis [5] | Herbicidal Activity Humulus scandens [6] | Herbicidal Activity Amaranthus retroflexus [7] | Herbicidal Activity Barnyard grass [8] | Herbicidal Activity Digitaria sanguinalis [9] | Herbicidal Activity Humulus scandens [10] | Herbicidal Activity Piemarker [11] | Herbicidal Activity Green bristlegrass [12] | Herbicidal activity 15 days after treatment Broadleaf weed [13] | Herbicidal activity 30 days after treatment Broadleaf weed [13] | Herbicidal activity 15 days after treatment Cyperaceae [14] | Herbicidal activity 30 days after treatment Cyperaceae [14] | Herbicidal activity 15 days after treatment Gramineae [15] | Herbicidal activity 30 days after treatment Gramineae [15] | Post-emergence weed control effect, Acalypha australis [16] | Post-emergence weed control effect, Amaranthus retroflexus [17] | further results
Cc1cccc(C(=O)NCc2ccc(F)cc2)c1 [Compound B02] | 1 | 2 (equivalent to 0 to 2.5% of the weed in the blank control area) | 1 | 1 | 2 (equivalent to 0 to 2.5% of the weed in the blank control area) | 2 (equivalent to 0 to 2.5% of the weed in the blank control area) | 1 | 1 | 1 | 1 | 1 | 1 | 1 | 1 | 1 | 1 | 2 (equivalent to 0 to 2.5% of the weed in the blank control area) | 2 (equivalent to 0 to 2.5% of the weed in the blank control area) | 2 (equivalent to 0 to 2.5% of the weed in the blank control area) | 1 | Post-emergence weed control effect, Barnyard grass [18]: 1; Post-emergence weed control effect, Chenopodium album [19]: 1; Post-emergence weed control effect, Convolvulus arvensis [20]: 1; Post-emergence weed control effect, Digitaria sanguinalis [21]: 2 (equivalent to 0 to 2.5% of the weed in the blank control area); Post-emergence weed control effect, Portulaca oleracea [22]: 1; Post-emergence weed control effect, Solanum nigrum [23]: 2 (equivalent to 0 to 2.5% of the weed in the blank control area); Post-emergence weed control effect, Goose grass [24]: 2 (equivalent to 0 to 2.5% of the weed in the blank control area); Post-emergence weed control effect, Green bristlegrass [25]: 1; Post-emergence weed control effect, Nutgrass flatsedge [26]: 2 (equivalent to 0 to 2.5% of the weed in the blank control area)
Cc1cccc(C(=O)NCc2cc(F)cc(Cl)c2)c1 [Compound B07] | 1 | 1 | 1 | 2 (equivalent to 0 to 2.5% of the weed in the blank control area) | 1 | 3 (equivalent to 2.6 to 5% of the weed in the blank control area) | 1 | 1 | 1 | 1 | 1 | 1 | 1 | 1 | 1 | 1 | 2 (equivalent to 0 to 2.5% of the weed in the blank control area) | 2 (equivalent to 0 to 2.5% of the weed in the blank control area) | 2 (equivalent to 0 to 2.5% of the weed in the blank control area) | 1 | Post-emergence weed control effect, Barnyard grass [18]: 1; Post-emergence weed control effect, Chenopodium album [19]: 1; Post-emergence weed control effect, Convolvulus arvensis [20]: 1; Post-emergence weed control effect, Digitaria sanguinalis [21]: 2 (equivalent to 0 to 2.5% of the weed in the blank control area); Post-emergence weed control effect, Portulaca oleracea [22]: 1; Post-emergence weed control effect, Solanum nigrum [23]: 2 (equivalent to 0 to 2.5% of the weed in the blank control area); Post-emergence weed control effect, Goose grass [24]: 2 (equivalent to 0 to 2.5% of the weed in the blank control area); Post-emergence weed control effect, Green bristlegrass [25]: 2 (equivalent to 0 to 2.5% of the weed in the blank control area); Post-emergence weed control effect, Nutgrass flatsedge [26]: 2 (equivalent to 0 to 2.5% of the weed in the blank control area)
